Test results from publication PMC7006784, “The combination of salvianolic acid A with latamoxef completely protects mice against lethal pneumonia caused by methicillin-resistant Staphylococcus aureus” (Emerging Microbes & Infections, 2020).
Marks after values point to notes of the source that are not given here.

Key:
WT-SrtA = test system: T1, WT-SrtA; experiment: Fluorescence quenching assay, WT-SrtA; type: binding, S. aureus
T1 construct: The gene encoding SrtA (lacking the N-terminal transmembrane domain (N1–59)); 6xHis (N); made in house
Description: (§1) The fluorescence quenching assay was performed as previously described. Briefly, purified SrtA and mutant protein were diluted to 500 ng/ml with PBS. A total of 2.5 ml diluted protein solution was mixed with Sal A at different concentrations ranging from 0 to 4.5 μg. After incubation for 10 min, the fluorescence spectra of the mixed solutions were measured using a fluorescence spectrophotometer (RF5301, Japan). For the fluorescence measurement, the excitation and emission slits were set at 5.0 nm, the excitation wavelength was set at 280 nm, and fluorescence emission spectra in the range of 290–500 nm were scanned; the fluorescence intensity at 340 nm was recorded. All assays were performed in triplicate.

S. aureus USA300 [1] = experiment: Pneumonia model, survival; type: in vivo, C57BL/6J mice; details: mice, 2 × 10^9 CFU i.n.; s.c. 100 mg/kg Sal A and/or 75 mg/kg latamoxef every 12 h, 96 h; PBS control 10%
Description: The animal experiments were performed using 6- to 8-week-old female C57BL/6J mice obtained from the Experimental Animal Center of Jilin University and conducted according to the guidelines of the Animal Care and Use Committee of Jilin University. The mouse S. aureus pneumonia model was generated as described previously. Briefly, the mice were anaesthetized with ether and inoculated with 30 μl bacterial resuspension via the left nare. The mice were then held upright to allow the bacteria to be inhaled into the lungs. For the survival assessment, groups of 10 mice were challenged with 2 × 10^9 CFU S. aureus. One hour after intranasal inoculation, the mice were subcutaneously injected with 100 mg/kg of Sal A, 75 mg/kg of latamoxef or 100 mg/kg of Sal A plus 75 mg/kg of latamoxef at 12 h intervals, and survival was assessed for 96 h. For the bacterial load, histopathological, and bronchoalveolar lavage fluid (BALF) experiments, mice were inoculated with 1 × 10^9 CFU S. aureus. The mice were then given a subcutaneous injection of 100 mg/kg Sal A, 75 mg/kg latamoxef or a combination of 100 mg/kg Sal A and 75 mg/kg every 12 h. After 24 h, the left lung of each anaesthetized mouse was aseptically excised and homogenized, and the CFU was determined by serial dilutions. […]

TNF-α, IL-6, IL-1β = experiment: Pneumonia model, cytokines in BALF (ELISA); type: in vivo, C57BL/6J mice; details: mice, 1 × 10^9 CFU i.n.; 100 mg/kg s.c.; 24 h after infection
Description: For the determinations of the levels of TNF-α, IL-6, IL-1β, 24 h after inoculation with bacteria, the lungs of anaesthetized mice were lavaged with a tracheal cannula according to a procedure described previously. The lavage samples were centrifuged for 10 min at 500 × g and 4°C. The supernatant was collected, and the amounts of cytokines were quantified using commercial enzyme-linked immunosorbent assay (ELISA) kits (eBioscience, San Diego, CA) according to the manufacturer’s protocols. All animal experiments were replicated at least twice, with essentially identical results.

A104L-SrtA = test system: T2, A104L-SrtA; experiment: Fluorescence quenching assay, A104L-SrtA; type: binding, S. aureus; details: fluorescence spectroscopy quenching
T2 construct: The gene encoding SrtA (lacking the N-terminal transmembrane domain (N1–59)); 6xHis (N); made in house
Description: as §1

S. aureus = experiment: Anti-S. aureus activity (MIC by broth microdilution, growth curve); type: cell-based
Description: The minimum inhibitory concentration (MIC) of Sal A was determined by broth microdilution according to the NCCLS guidelines. Briefly, overnight cultures of S. aureus were diluted 1:100 with fresh Brain Heart Infusion (BHI) medium supplemented with or without 256 μg/ml Sal A and grown at 37°C with shaking. Absorbance readings were obtained at OD600 at different time intervals.

S. aureus USA300 [2] = experiment: Pneumonia model, bacterial load and histopathology of the lungs; type: in vivo, C57BL/6J mice; details: mice, 1 × 10^9 CFU i.n., 24 h
Description: The animal experiments were performed using 6- to 8-week-old female C57BL/6J mice obtained from the Experimental Animal Center of Jilin University and conducted according to the guidelines of the Animal Care and Use Committee of Jilin University. The mouse S. aureus pneumonia model was generated as described previously. Briefly, the mice were anaesthetized with ether and inoculated with 30 μl bacterial resuspension via the left nare. The mice were then held upright to allow the bacteria to be inhaled into the lungs. For the survival assessment, groups of 10 mice were challenged with 2 × 10^9 CFU S. aureus. One hour after intranasal inoculation, the mice were subcutaneously injected with 100 mg/kg of Sal A, 75 mg/kg of latamoxef or 100 mg/kg of Sal A plus 75 mg/kg of latamoxef at 12 h intervals, and survival was assessed for 96 h. For the bacterial load, histopathological, and bronchoalveolar lavage fluid (BALF) experiments, mice were inoculated with 1 × 10^9 CFU S. aureus. The mice were then given a subcutaneous injection of 100 mg/kg Sal A, 75 mg/kg latamoxef or a combination of 100 mg/kg Sal A and 75 mg/kg every 12 h. After 24 h, the left lung of each anaesthetized mouse was aseptically excised and homogenized, and the CFU was determined by serial dilutions. The right lungs from each group of mice were excised for histopathological analysis, and the samples were fixed in 10% formalin and stained with haematoxylin and eosin (H&E).

SrtA [3] = target: T3, SrtA (Staphylococcus aureus, UniProt Q2FV99); experiment: Reversible inhibition assay of SrtA; type: biochemical, S. aureus; details: after incubation at 10 × IC50 and dilution
T3 construct: The gene encoding SrtA (lacking the N-terminal transmembrane domain (N1–59)); made in house
Description: To evaluate the reversible inhibition by Sal A of SrtA, 100 μl of purified SrtA was incubated with Sal A at a final concentration equal to 10-fold the IC50 for 1 h at 37°C. Then, 9.9 ml reaction buffer was added. Subsequently, 10 μl of the substrate peptide was added to the 190 μl diluted mixture at a final concentration of 10 μM. The fluorescence intensity was measured using a microplate reader at λex = 350 nm and λem = 495 nm. Triplicate measurements were obtained for each data point, and the data are reported as the mean ± SEM.

SrtA [4] = target: T3, SrtA; experiment: SrtA activity assay (FRET); type: biochemical, S. aureus
Description: The SrtA activity assay was performed by using FRET as described previously. Briefly, a mixture of 4 μM recombinant SrtA and different concentrations of Sal A in a 300 μl reaction volume (50 mM Tris·HCl, 150 mM NaCl and 5 mM CaCl2, pH 7.5) was incubated for 1 h at 37°C. Then, 10 μM substrate peptide was added and incubated for an additional hour. Wells containing all constituents except SrtA served as blank controls. The fluorescence was measured with a microplate reader at λex = 350 nm and λem = 495 nm.

T3 sequence (Q2FV99 60-206): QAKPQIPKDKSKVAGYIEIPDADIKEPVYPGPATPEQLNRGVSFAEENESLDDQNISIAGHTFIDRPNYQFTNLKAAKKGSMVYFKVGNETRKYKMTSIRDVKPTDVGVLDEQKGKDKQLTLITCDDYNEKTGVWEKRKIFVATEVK

O=C(/C=C/c1ccc(O)c(O)c1/C=C/c1ccc(O)c(O)c1)O[C@H](Cc1ccc(O)c(O)c1)C(=O)O [Sal A, (2R)-3-(3,4-Dihydroxyphenyl)-2-[(E)-3-[2-[(E)-2-(3,4-dihydroxyphenyl)ethenyl]-3,4-dihydroxyphenyl]prop-2-enoyl]oxypropanoic acid]
KA (WT-SrtA; fluorescence quenching, WT SrtA): 58000 L/mol
KA (WT-SrtA; fluorescence spectroscopy quenching, WT-SrtA): 5.8 (1 × 10^4) l/mol
survival rate (S. aureus USA300 [1]): 80%
levels of TNF-α, IL-6, and IL-1β in the BALF compared with the control group (TNF-α, IL-6, IL-1β): significantly downregulated
KA (A104L-SrtA): 2.62 (1 × 10^4) l/mol
growth of S. aureus (S. aureus; 40-fold the IC50 (up to 200 μM), growth curve with 256 μg/ml): did not inhibit the growth
MIC (S. aureus; Staphylococcus aureus, broth microdilution): > 1020 µg/mL
viable MRSA loads in the lungs in comparison with the control (S. aureus USA300 [2]; s.c. 100 mg/kg Sal A and/or 75 mg/kg latamoxef every 12 h): significantly decreased
pulmonary inflammation (histopathology of the lungs) (S. aureus USA300 [2]; s.c. 100 mg/kg Sal A and/or 75 mg/kg latamoxef, H&E): alleviated
SrtA activity recovered in comparison with the control group (SrtA [3]): 88 ± 3.21%
IC50 (SrtA [4]): 11.6 µM
